Source: patent publication US10617664B2, “Brain derived PPARα ligands” (Rush University Medical Center, priority 2015, dated 2020)

Assays:
Type in all cases: cell-based, mouse
[1] = system: PPRE-driven luciferase activity; test: PPRE-luciferase assay in Pparb-null astrocytes with PPARγ antagonist GW9662; conditions: Pparb-null astrocytes
Procedure: FIG. 16A) Pparb-null primary astrocytes plated at 60-70% confluence in 12-well plates were transfected with 0.25 μg of tkPPREx3-Luc (a PPRE-dependent luciferase reporter construct). Twenty-four hours after transfection, cells were treated with different concentrations of GW9662 for 30 min followed by stimulation with rosiglitazone. After 4 h, luciferase activities were assayed. […] After transfection, cells were also treated with GW9662 followed by stimulation with OCT (FIG. 16B), HEX (FIG. 16C) and HMB (FIG. 16D).
These astrocytes were pre-treated with PPARγ-antagonist GW9662 to nullify the involvement of PPARγ in reporter assay.

[2] = system: PPRE-driven luciferase activity; test: PPRE-luciferase assay in Ppara-null astrocytes transduced with Ppara constructs; conditions: Ppara-null astrocytes (empty vector)
Procedure: Astrocytes plated at 60-70% confluence were transfected with tk-PPREx3-Luc, a PPRE-dependent luciferase reporter construct. After 24 h of transfection, cells were treated with different concentrations of HEX (FIG. 10A), OCT (FIG. 10B) and HMB (FIG. 10C) for 4 h followed by monitoring luciferase activity. Under similar experimental condition, MTT was performed to understand the effect of these ligands on cell viability (FIG. 10D, HEX; FIG. 10E, OCT; FIG. 10F, HMB). Results are mean±SD of three independent experiments. ^ap<0.001 vs. control. Ppara-null astrocytes were transduced with lentivirions containing empty vector (FIG. 10G), FL-Ppara (FIG. 10H), Y314D-Ppara (FIG. 10I), Y464D-Ppara (FIG. 10J), and Y314D/Y464D-Ppara (FIG. 10K) for 48 h followed by transfection with tk-PPREx3-Luc. After 24 h of transfection, cells were treated with different doses of HEX, OCT and HMB for 4 h followed by monitoring luciferase activity. PPRE luciferase activity was assayed in Ppara-null astrocytes transduced with lentivirions containing empty vector (FIG. 10L), FL-Ppara (FIG. 10M), Y314D-Ppara (FIG. 10N), Y464D-Ppara (FIG. 10O), and Y314D/Y464D-Ppara (FIG. 10P) after treatment with different doses of WY14643, fenofibrate, and clofibrate. PPRE luciferase activity was assayed in primary hippocampal neurons transduced with lentivirions containing empty vector (FIG. 10Q), FL-Ppara (FIG. 10R), Y314D-Ppara (FIG. 10S), Y464D-Ppara (FIG. 10T), and Y314D/Y464D-Ppara (FIG. 10U) after treatment with different doses of HEX, OCT and HMB. Results are mean±SD of three independent experiments. ^ap<0.001 vs. control.

[3] = system: Ppara-null hippocampal neurons; test: Dendritic spine density (phalloidin) in transduced Ppara-null hippocampal neurons; conditions: lenti-FL-Ppara
Procedure: Ppara-null hippocampal neurons were transduced with lentivirions containing GFP (vector), FL-Ppara, and Y464D-Ppara for 48 h followed by treatment with vehicle (DMSO) (FIG. 11A), OCT (FIG. 11B), HEX (FIG. 11C), HMB (FIG. 11D), and WY14643 (FIG. 11E) for 24 h. Then neurons were stained for phalloidin to measure spine density. FIG. 11F) A representative picture of dendrite with spines (Cyan color) used for counting area of spine heads. Area of spine heads (FIG. 11G) and number of spines (FIG. 11H) in 10 μm of dendrites. Results are mean±SEM of 5 neurons per group. ^ap<0.05 vs vector only; ^bp<0.05 vs FL-Ppara. AMPA-driven calcium influx was measured in OCT (red), HEX (green) and HMB (purple)-treated Ppara-null hippocampal neurons transduced with lentivirions containing FL-Ppara (FIG. 11I), Y314D-Ppara (FIG. 11J), Y464D-Ppara (FIG. 11K), and Y314D/Y464D-Ppara (FIG. 11L). All neurons were treated with 50 μM of NMDA receptor antagonist N20C to inhibit passive calcium flow through NMDA receptor. (FIG. 11M-P) Similarly NMDA-driven calcium influx was measured in the lentivius-infected Ppara-null hippocampal neurons in the presence of different endogenous ligands. In these cases, Naspm-HCl was treated to stop the passive flow of calcium currents through AMPA receptor. Results are mean of three independent experiments.
Dendritic spines are the crucial mediators of synaptic transmission among central neurons and often serve as a primary candidate for the long term morphological substrates of neuronal plasticity^12,13. Therefore, the effect of these ligands on the increase of spine density in cultured hippocampal neurons was studied. Briefly, mouse Ppara-null hippocampal neurons were transduced with lentivirus containing empty vector, FL-Ppara, or Y464D-Ppara for a week followed by the treatment with OCT, HEX, and HMB for four more days. After that, neurons were labelled with phalloidin to monitor the spine density. […] This observation was further validated by measuring the area of spine heads (FIG. 11F-G) and number of spines (FIG. 11H) in HEX, OCT, and HMB-treated Ppara-null neurons. HEX (FIG. 17G-H), OCT (FIG. 17I-J) and HMB (FIG. 17K-L) stimulated the expression of CREB in Ppara-null hippocampal neurons that were transduced with lentivirons containing the FL-Ppara gene.
Hippocampal regions were dissected from 18-day-old embryonic fetus as described elsewhere (PMID: 25007337), combined and plated in poly-D-lysine coated plate for another 2-3 weeks for branching. After that, these neurons were transduced with GFP-containing lentivirions for 2 d. Neurons were stained with Dylight-554-conjugated phalloidin (Cat #21834; Thermofisher) as per manufactures protocol and visualized in fluorescence microscope. […]

effect on rosiglitazone-mediated increase in PPRE-luciferase activity [1] | PPRE-driven luciferase activity [2] | SMILES | density of spines [3]
Inhibition | – | O=C(Nc1ccccc1)c1cc([N+](=O)[O-])ccc1Cl [GW9662, reference compound] | –
– | unable to induce | Cc1cccc(Nc2cc(Cl)nc(SCC(=O)O)n2)c1C [WY14643, reference compound] | stimulated
